Earlier results as cited in patent publication US20080247985A1, “Composition base containing solubilized allantoin and urea for topical preparations” (priority 2007, published 2008).

Details: water at 25 °C

Solubility in water: 0.45%
Compound: NC(=O)NC1NC(=O)NC1=O (stereo not shown) [allantoin, (2,5-dioxo-4-imidazolidinyl) urea]
